Measured values taken from PubChem BioAssay (NCI).
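1) Cells in 96-well plates. 2) Compound, 48 h, 5 concentrations. 3) Linear interpolation between surrounding doses. 4) Unreached endpoint = highest concentration. Here, GI50 denotes the concentration required for 50% inhibition of growth. TGI marks complete inhibition of growth.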 *1 amine or outer side, *2 acyl side, *3 side chain or, on linkers, in order; H or OH if unused. Where a SMILES comes first, the peptide text is derived from it. [ ]: non-standard residue; d: D form. The star is where a group is joined. ξ: configuration not given here. X15 = CCN(CC)c1ccc2cc(N*)c(=O)oc2c1; dIva = CC[C@@](C)(N)C(=O)O; X14 = O=C(OCCN[*:1])[*:2]; Aib = CC(C)(N)C(=O)O; ξP = O=C(O)C1CCCN1; βAla = NCCC(=O)O

Key:
Assay in all cases: inhibition of tumour cell growth, NCI panel, 48 h
786-0 renal = tested on: 786-0 renal
MDA-MB-231 breast = tested on: MDA-MB-231 breast
CAKI-1 renal = tested on: CAKI-1 renal
DU-145 prostate = tested on: DU-145 prostate
UO-31 renal = tested on: UO-31 renal
HOP-92 NSCLC = tested on: HOP-92 NSCLC
COLO 205 colon = tested on: COLO 205 colon
OVCAR-4 ovarian = tested on: OVCAR-4 ovarian
MOLT-4 leukemia = tested on: MOLT-4 leukemia
RPMI-8226 leukemia = tested on: RPMI-8226 leukemia

Structure (SMILES)	GI50 (786-0 renal) [µM]	TGI (786-0 renal) [µM]	GI50 (MDA-MB-231 breast) [µM]	TGI (MDA-MB-231 breast) [µM]	GI50 (CAKI-1 renal) [µM]	TGI (CAKI-1 renal) [µM]	GI50 (DU-145 prostate) [µM]	TGI (DU-145 prostate) [µM]	GI50 (UO-31 renal) [µM]	TGI (UO-31 renal) [µM]	GI50 (HOP-92 NSCLC) [µM]	TGI (HOP-92 NSCLC) [µM]	GI50 (COLO 205 colon) [µM]	TGI (COLO 205 colon) [µM]	GI50 (OVCAR-4 ovarian) [µM]	TGI (OVCAR-4 ovarian) [µM]	TGI (MOLT-4 leukemia) [µM]	TGI (RPMI-8226 leukemia) [µM]	GI50 (MOLT-4 leukemia) [µM]	GI50 (RPMI-8226 leukemia) [µM]
CC(C)C[C@H](NC(=O)[C@@H](O)[C@H](N)Cc1ccc([N+](=O)[O-])cc1)C(=O)O	> 25	> 25	> 25	> 25	> 25	> 25	> 25	> 25	> 25	> 25	> 25	> 25	> 25	> 25	> 25	> 25	–	–	–	–
CCCC(Sc1ccccc1)P(=O)(c1ccccc1)c1ccccc1 (centres undefined)	–	> 100	–	–	–	> 100	–	–	–	> 100	–	60.1	–	> 100	–	> 100	52.2	51.8	–	–
Cc1ccc(Sc2ccc(C)cc2[N+](=O)[O-])c([N+](=O)[O-])c1	–	> 100	–	–	–	> 10	–	–	–	> 100	–	> 100	–	> 100	–	> 100	> 100	> 100	–	–
CCOc1ccccc1/C=N\N=C(\N)N/N=C/c1ccccc1OCC	4.42	> 100	4.69	> 100	4.12	> 100	2.84	> 100	2.97	> 100	–	–	–	–	3.68	> 100	> 100	> 100	3.33	2.82
Cc1cn2c(/C=N/Nc3ccccn3)c(-c3ccc(Cl)c([N+](=O)[O-])c3)nc2s1	18.5	> 50	6.73	18.2	39	> 50	6.39	29.8	13.1	> 50	12.9	> 50	> 50	> 50	–	–	–	> 50	–	30.2
C1CCOC2(CCC3(CC2)OCCCCO3)OC1	–	> 100	–	–	–	> 100	–	–	–	> 100	–	–	–	> 100	–	> 100	> 100	> 100	–	–
COc1ccc(-c2nn(-c3cccc(Cl)c3)cc2-c2cc(-c3ccccc3)nc(N)n2)cc1	4.94	26.4	–	–	1.77	10.7	10.5	22.3	10	26.5	1.06	4.77	2.09	3.81	2.42	9.64	5.61	9.17	2.03	2.65
C=CCC(OCCOCC)c1cc(OCCOCC)ccc1OC (centres undefined)	–	> 100	–	–	–	> 100	–	–	–	> 100	–	> 100	–	> 100	–	> 100	> 100	> 100	–	–
O=C1NC2C=CN(Cc3ccccc3)C=C2C(=O)N2CCCC12 (centres undefined)	–	> 100	–	–	–	> 100	–	–	–	> 100	–	> 100	–	> 100	–	> 100	> 100	–	–	–
C[C@@H](NC1CCC[C@H]1O)c1ccccc1 (some centres undefined)	–	> 100	–	–	–	> 100	–	–	–	> 100	–	> 100	–	> 100	–	> 100	> 100	> 100	–	–
COc1cc(/C=C/C(=O)c2sc(NNC(C)=O)nc2C)ccc1O	–	> 100	–	–	–	> 100	–	–	–	> 100	–	> 100	–	> 100	–	–	> 100	> 100	–	–
CCCCCCCOc1c(OC)cc(C2CC(=O)Nc3c2c(C)nn3-c2nc3ccccc3[nH]2)cc1OC (centres undefined)	3.61	21.8	1.98	4.12	1.92	4.25	4.66	> 100	1.63	4.82	2.34	7.68	4.34	> 100	–	–	7.72	> 100	2.8	3.71
CC12CC(OC(=O)[C@]1(C)O)[C@@H]([C@]1(O)CC[C@H]3[C@@H]4C[C@H]5O[C@]56[C@@H](O)C=CC(=O)[C@]6(C)[C@H]4CC[C@@]31C)C2 (some centres undefined)	–	10.1	–	16.7	–	24.9	–	86.7	–	16.8	–	8.08	–	10.7	–	24.4	10.1	–	–	–
N.N.NCCCCCCN.O=C([O-])CC(=O)[O-].O=C([O-])CC(=O)[O-].[Pt+4].[Pt+4]	65.7	> 100	–	–	26.6	> 100	–	–	> 100	> 100	> 100	> 100	27.7	> 100	> 78.5	> 100	> 100	> 100	5.2	> 100
COC(=O)C1=C(C(=O)OC)SC(=C(N=Nc2ccccc2)c2ccccc2)S1	–	> 100	–	–	–	> 100	–	–	–	> 100	–	> 100	–	> 100	–	> 100	> 100	> 100	–	–
O=C1CCC2(c3ccccc3)Nc3ncccc3N12 (centres undefined)	–	> 100	–	–	–	> 100	–	–	–	> 100	–	> 100	–	> 100	–	> 100	> 100	> 100	–	–
CCN(CC)c1ccc2cc(NC(=O)OCCNC(=O)CCNC(=O)[C@H](CC(C)C)NC(=O)C(C)(C)NC(=O)C(C)(C)NC(=O)[C@H](CC(C)C)NC(=O)CCNC(=O)C(C)(C)NC(=O)[C@H](CC(C)C)NC(=O)CCNC(=O)[C@@](C)(CC)NC(=O)[C@H](C)NC(=O)CCNC(=O)C(C)(C)NC(=O)[C@H](C)NC(=O)[C@@H]3CCCN3C(=O)[C@@](C)(CC)NC(=O)[C@H](Cc3ccccc3)NC(=O)C3CCCN3C(=O)C(C)(C)NC(=O)C3CCCN3C(=O)C(C)(C)NC(C)=O)c(=O)oc2c1 (some centres undefined) (Ac-[Aib][ξP][Aib][ξP]F[dIva]PA[Aib][βAla]A[dIva][βAla]L[Aib][βAla]L[Aib][Aib]L[βAla][X14]-X15)	0.0102	0.0319	–	–	0.156	0.304	0.00497	0.0199	0.0296	0.114	0.0256	0.0709	0.00237	0.006	0.00347	0.0439	0.0184	–	0.00399	–
